Experimental data published in patent publication US7897630B2, “5-aryl isoxazolines for controlling invertebrate pests” (E.I. du Pont de Nemours and Company, priority 2005, dated 2011).

Tested on: cat flea (Ctenocephalides felis Bouche)
Experiment: Test H: control of cat flea on orally dosed CD-1 mouse
Type: in vivo
Conditions: oral 10 mg/kg, fleas applied 2 hours after dosing, evaluated 48 hours after flea application
Description: For evaluating control of the cat flea (Ctenocephalides felis Bouche), a CD-1® mouse (about 30 g, male, obtained from Charles River Laboratories, Wilmington, Mass.) was orally dosed with a test compound in an amount of 10 mg/kg solubilized in propylene glycol/glycerol formal (60:40). Two hours after oral administration of the test compound, approximately 8 to 16 adult fleas were applied to each mouse. The fleas were then evaluated for mortality 48 hours after flea application to the mouse.

In the case of `CSc1ccc(C2=NOC(c3cc(Cl)cc(Cl)c3)(C(F)(F)F)C2)cc1Br` (racemic) [Compound 205], the flea mortality is reported as ≥ 20%.
